Patent publication US5834463A, “Condensed heterocyclic compounds, their production and use” (Takeda Chemical Industries, Ltd., priority 1994, dated 1998)

How the values were obtained:
[1] = tested on: pentobarbital-induced sleep in mice; experiment: Effect on pentobarbital-induced sleep in mice; format: in vivo, ICR male mice; conditions: 30 minutes before sodium pentobarbital 55 mg/kg i.p.
Method: (G) Effect on pentobarbital-induced sleep in mice
ICR male mice of 5-6 week old were orally administered with test samples dissolved or suspended in a physiological saline solution or 5% gum solution dosage of 100 mg/kg (2-3 animals in each group), and behavioral observation was conducted at 15, 30, 60 and 120 minutes after the administration.
As the next stage, ICR male mice of 4-5 week old were orally administered with test samples dissolved or suspended in a physiological saline solution or 5% gum arabic solution at a dosage which was one rank lower than the dosage determined as above (8 animals in each group). Thirty minutes after the administration, test animals were administered intraperitoneally with sodium pentobarbital at a dosage of 55 mg/kg. The duration of sleep was measured as the time from the onset of righting reflex until the righting reflex was regained.

[2] = tested on: ethanol-induced sleep in mice; experiment: Effects on ethanol-induced sleep in mice; format: in vivo, ICR male mice; conditions: 30 mg/kg orally, 30 minutes before 25% ethanol i.p.; 8 animals
Method: (F) Effects on ethanol-induced sleep in mice
ICR male mice of 4-5 week old were orally administered with test compounds suspended in a physiological saline solution or 5% gum arabic solution at a dosage of 30 mg/kg (8 animals in each group). Thirty minutes later, test animals were intrapritoneally injected with 25% ethanol (0.2 mL/10 g). The duration of sleep was measured as the time from the onset of righting reflex until the righting reflex was regained.

[3] = molecular target: T1, human GnRH receptor (Homo sapiens, UniProt P30968); experiment: Test for inhibition of ^125 I-leuprorelin binding to human GnRH receptor; conditions: membrane fraction of CHO cells expressing human GnRH receptors, 25° C., 60 minutes, read-out: Binding Inhibitory Activity (IC50, μM) for human GnRH receptor
T1 construct: expressed in transfected cells; host or cells: CHO (Chinese Hamster Ovary) cells, membrane fraction
T1 sequence (P30968 1-328): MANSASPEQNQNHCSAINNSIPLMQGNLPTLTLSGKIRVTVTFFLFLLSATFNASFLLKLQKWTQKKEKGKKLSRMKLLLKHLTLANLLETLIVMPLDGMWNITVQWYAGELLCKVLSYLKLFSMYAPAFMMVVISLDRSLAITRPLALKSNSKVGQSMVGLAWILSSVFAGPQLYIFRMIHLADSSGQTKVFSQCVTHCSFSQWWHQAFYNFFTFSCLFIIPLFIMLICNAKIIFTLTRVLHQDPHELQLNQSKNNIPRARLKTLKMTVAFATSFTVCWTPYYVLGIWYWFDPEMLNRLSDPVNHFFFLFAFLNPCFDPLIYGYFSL
Method: (A) Preparation of ^125 I-leuprorelin
Ten μl of a 3×10^-4 M aqueous solution of leuprorelin and 10μl of 0.01 mg/ml lactoperoxidase in 0.1M Hepes buffer (pH7.4) were put in a tube, to which was added 10 μl of an Na^125 I solution (37 MBq). The mixture was stirred, to which was added 10 μl of 0.001% H2 O2, followed by allowing the reaction to proceed for 20 minutes at room temperature. To the reaction mixture was added 700 μl of a 0.05% TFA solution to stop the reaction. The product of was purified by means of a reverse-phase HPLC. Conditions of HPLC were as follows:
(D) Preparation of membrane fraction of CHO (Chinese Hamster Ovary) cells containing human GnRH receptors
CHO cells (10^9) expressing human GnRH receptors were suspended in a phosphate-buffered saline supplemented with 5 mM EDTA. The suspension was subjected to centrifugal separation for 5 minutes at 100×g. To the pellet of cells was added 10 ml of a homogenate buffer for cells (10 mM NaHCO3, 5 mM EDTA, pH 7.5), which was homogenated by using a Polytron homogenizer. Centrifugal separation was conducted for 15 minutes at 400×g. The supernatant was taken into an ultracentrifugal tube, which was subjected to centrifuge for one hour at 100,000×g to give precipitate of the membrane fraction. The precipitate was suspended in 2 ml of the assay buffer, which was centrifuged for one hour at 100,000×g. The membrane fraction recovered as precipitate was again suspended in 20 ml of the assay buffer, which was distributed to vials and stored at -80° C. until used.
(E) Determination of inhibitory rate of ^125 I-leuprorelin binding
In the cases of using rat and human pituitary membrane fractions prepared in (B) and (D), they were respectively diluted with the assay buffer to 200 μg/ml and 188 μl each was distributed to tubes. In the case of using bovine pituitary membrane fraction prepared in (C), it was diluted with the assay buffer to 750 μg/ml and 188 μl each was distributed into tubes. In the case where the membrane fraction of anterior lobes of rat pituitary gland was used, 2 μl of a 0.1 mM compound dissolved in 60% DMSO (dimethylsulfoxide) and 10 μl of 38 nM ^125 I-leuprorelin were added thereto simultaneously. In the case where the membrane fraction of anterior lobes of bovine pituitary gland and the membrane fraction derived from the CHO cells expressing human GnRH receptors were used, 2 μl of a 2 mM compound dissolved in 60% DMSO and 10 μl of 38 nM ^125 I-leuproprelin were added simultaneously. For determining the maximum binding amount, a solution for reaction supplemented with 2 μl of 60% DMSO and 10 μl of 38 nM ^125 I-leuprorelin was prepared. And, for determining the amount of non-specific binding, a solution for reaction supplemented with 2 μl of 100 μM leuprorelin dissolved in 60% DMSO and 10 μl of 38 nM ^125 I-leuprorelin were also prepared simultaneously.
In the cases where membrane fractions of anterior lobes of rat and bovine pituitary were used, reaction was allowed to proceed at 4° C. for 90 minutes, while in the case where the membrane fraction derived from the CHO cells expressing human GnRH receptor was used, reaction was allowed to proceed at 25° C. for 60 minutes. The reaction mixtures were respectively subjected to filtration under sucking with Whatman glass filter (GF-F) processed with polyethyleneimine. After completing the filtration, radioactivity of the ^125 I-leuprorelin remaining on the filter paper was measured with a γ-counter.
By calculation of (TB-SB)/(TB-NSB)×100 (SB: radioactivity obtained when a compound was added, TB: radioactivity for the maximum binding, NSB: radioactivity for the non-specific binding), the binding inhibitory rate of each test compound was determined. Besides, the inhibitory rates were determined by changing the concentrations of test compounds, and the concentration of a test compound inhibiting the specific binding by 50% (IC50 value) was calculated by way of Hill plot.

[4] = cited from earlier work
[5] = tested on: GnRH receptor; conditions: relative to GnRH obtained from natural sources; cited from earlier work

O=C1[C@H]2CCC[C@H]2Nc2ccccc2N1Cc1ccc(Cl)cc1Cl (relative stereo) [compound 37]
Percentage (%) of sleeping time relative to control ([1]; 50 mg/kg orally): 128% | Percentage (%) of sleeping time relative to control [2]: 145%

CN1c2ccccc2N(Cc2ccccc2)C[C@H]2CCC[C@H]21 (relative stereo) [compound 45]
Percentage (%) of sleeping time relative to control ([1]; 20 mg/kg orally): 124%

CN1c2ccccc2N(Cc2ccccc2)C(=O)[C@H]2CCC[C@H]21 (relative stereo) [compound 63]
Percentage (%) of sleeping time relative to control [2]: 37%

CC(=O)N1c2ccccc2N(Cc2ccccc2)C(=O)[C@H]2CCC[C@H]21 (relative stereo) [compound 64]
Percentage (%) of sleeping time relative to control [2]: 41%

N#Cc1ccc(CN2C(=O)[C@H]3CCC[C@H]3N(C(=O)CN3C(=O)c4ccccc4C3=O)c3ccccc32)cc1 (relative stereo) [compound 210]
IC50 [3]: 0.4 µM

CSc1ccc(CN2C(=O)[C@H]3CCC[C@H]3N(C(=O)CN3C(=O)c4ccccc4C3=O)c3ccccc32)cc1 (relative stereo) [compound 212]
IC50 [3]: 1 µM

O=C1c2ccccc2C(=O)N1CC(=O)N1c2ccccc2N(Cc2ccc(O)cc2)C(=O)[C@H]2CCC[C@H]21 (relative stereo) [compound 214]
IC50 [3]: 1 µM

O=C1c2ccccc2C(=O)N1CC(=O)N1c2ccccc2N(Cc2cccc(O)c2)C(=O)[C@H]2CCC[C@H]21 (relative stereo) [compound 215]
IC50 [3]: 2 µM

O=C1c2ccccc2C(=O)N1CC(=O)N1c2ccccc2N(CCc2ccccc2)C(=O)[C@H]2CCC[C@H]21 (relative stereo) [compound 217]
IC50 [3]: 0.7 µM

CCNC(=O)[C@@H]1CCCN1C(=O)[C@H](CCCNC(=N)N)NC(=O)[C@H](CC(C)C)NC(=O)[C@@H](CC(C)C)NC(=O)[C@H](Cc1ccc(O)cc1)NC(=O)[C@H](CO)NC(=O)[C@H](Cc1c[nH]c2ccccc12)NC(=O)[C@H](Cc1c[nH]cn1)NC(=O)[C@@H]1CCC(=O)N1 [Leuprorelin acetate]
anti-tumor activity against hormone-dependent cancers ([4]; for example, prostatic cancer): shows anti-tumor activity | productivity of testosterone ([4]; repeated administration): reduce the productivity of testosterone to the level of castration

O=C1C2CCCC2=Nc2ccccc2N1Cc1ccc(Cl)cc1 (stereo not drawn) [compound 4]
Percentage (%) of sleeping time relative to control ([1]; 50 mg/kg orally): 140%

O=C1C2CCCC2=Nc2ccccc2N1Cc1ccccc1F (stereo not drawn) [compound 5]
Percentage (%) of sleeping time relative to control ([1]; 20 mg/kg orally): 140%

O=C1C2CCCC2=Nc2ccccc2N1Cc1ccncc1 (stereo not drawn) [compound 9]
Percentage (%) of sleeping time relative to control ([1]; 10 mg/kg orally): 176%

Nc1ccc(CN2C(=O)C3CCCC3=Nc3ccccc32)cc1 (stereo not drawn) [compound 17]
Percentage (%) of sleeping time relative to control [2]: 33%

O=C1N(Cc2ccccc2)c2ccccc2NC2CCCC12Cc1ccccc1 (stereo not drawn) [compound 29]
Percentage (%) of sleeping time relative to control [2]: 50%

O=C1CC(/C=C/c2ccccc2)Nc2ccccc2N1Cc1ccccc1 (stereo not drawn) [compound 36]
IC50 [3]: 2 µM

O=C1[C@H]2CCC[C@H]2N(C(=O)CN2C(=O)c3ccccc3C2O)c2ccccc2N1Cc1ccccc1 (stereo partly drawn) [compound 65]
IC50 [3]: 14 µM

O=C1c2ccccc2C(O)N1CC(=O)N1c2ccccc2N(Cc2ccccc2)C[C@H]2CCC[C@H]21 (stereo partly drawn) [compound 66]
IC50 [3]: 8 µM

O=C1C2=C(CCCC2)C(=O)N1CC(=O)N1c2ccccc2N(Cc2ccccc2)C(=O)C2CCCC21 (stereo not drawn) [compound 76]
IC50 [3]: 1 µM

COc1cccc(CN2C(=O)C3CCCC3N(C(=O)CN3C(=O)c4ccccc4C3=O)c3ccccc32)c1 (stereo not drawn) [compound 111]
IC50 [3]: 4 µM

COc1ccc(CN2C(=O)C3CCCC3N(C(=O)CN3C(=O)c4ccccc4C3=O)c3ccccc32)cc1 (stereo not drawn) [compound 112]
IC50 [3]: 2 µM

O=C1c2ccccc2C(=O)N1CC(=O)N1c2ccccc2N(c2ccccc2)C(=O)C2CCCC21 (stereo not drawn) [compound 121]
IC50 [3]: 11 µM

O=C1C2CCCCC2C(=O)N1CC(=O)N1c2ccccc2N(Cc2ccccc2)C(=O)C2CCCC21 (stereo not drawn) [compound 174]
IC50 [3]: 5 µM

O=C1C2CCCCC2C(=O)N1CC(=O)N1c2ccccc2N(Cc2ccccc2)C(=O)[C@H]2CCC[C@H]21 (stereo partly drawn) [compound 175]
IC50 [3]: 1 µM

CCNC(=O)[C@@H]1CCCN1C(=O)[C@H](CCCNC(=N)N)NC(=O)[C@H](CC(C)C)NC(=O)[C@@H](CC(C)C)NC(=O)[C@H](Cc1ccc(O)cc1)NC(=O)[C@H](CO)NC(=O)[C@H](Cc1c[nH]c2ccccc12)NC(=O)[C@H](Cc1c[nH]cn1)NC(=O)[C@@H]1CCC(=O)N1 [leuprorelin]
affinity to GnRH receptor [5]: higher affinity to GnRH receptor than GnRH obtained from natural sources
